From US20060069132A1, “Azolecarboxamide herbicides” (priority 2004, published 2006)

Key:
[1] = test system: lambsquarters; assay: Test B pre-/postemergence herbicide test; type: in vivo, Chenopodium album
How it was run: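 Plants compared with untreated controls 13–15 days post-treatment and given a visual 0–100 injury score. Applications: preemergence to seeds; postemergence at 1- to 4-leaf (2–18 cm); paddy species flooded, 2-leaf stage. Vehicle non-phytotoxic, surfactant included.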

[2] = test system: lambsquarters; assay: Test C pre-/postemergence herbicide test; type: in vivo, Chenopodium album
How it was run: (§1)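 Seeds were planted and sprayed preemergence with test chemicals in a non-phytotoxic solvent mixture containing surfactant; postemergence treatments went onto plants 2 to 18 cm tall (1- to 4-leaf stage). After 12 to 14 days in a greenhouse, injury was rated visually against untreated controls on a 0–100 scale.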

[3] = test system: large crabgrass; assay: Test A pre-/postemergence herbicide test; type: in vivo, Digitaria sanguinalis
How it was run: (§2)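 Seeds sown in sandy loam received a preemergence directed soil spray of compound in non-phytotoxic solvent with surfactant; postemergence plants (2–10 cm, one- to two-leaf stage) were sprayed to runoff at the same time. After ~10 days in greenhouse, injury was rated visually versus untreated controls (0 = no effect, 100 = complete control).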

[4] = test system: woolly cupgrass; assay: Test C pre-/postemergence herbicide test; type: in vivo, Eriochloa villosa
How it was run: as §1

[5] = test system: pigweed; assay: Test C pre-/postemergence herbicide test; type: in vivo, Amaranthus retroflexus
How it was run: as §1

[6] = test system: giant foxtail; assay: Test A pre-/postemergence herbicide test; type: in vivo, Setaria faberi
How it was run: as §2

[7] = test system: Surinam grass; assay: Test C pre-/postemergence herbicide test; type: in vivo, Urochloa decumbens
How it was run: as §1

[8] = test system: johnsongrass; assay: Test C pre-/postemergence herbicide test; type: in vivo, Sorghum halepense
How it was run: as §1

[9] = test system: cocklebur; assay: Test B pre-/postemergence herbicide test; type: in vivo, Xanthium strumarium
How it was run: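 Greenhouse pot assay with simultaneous preemergence (treated seed) and postemergence (2–18 cm seedlings) applications of surfactant-containing, non-phytotoxic solvent formulations. Response scored visually 13–15 days later on a 0–100 scale, 100 meaning complete control.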

[10] = Postemergence, 500 g ai/ha, visual rating after 13 to 15 days, scale 0 (no effect) to 100 (complete control)
[11] = postemergence, 125 g ai/ha, visual rating, scale 0 (no effect) to 100 (complete control)
[12] = preemergence, 125 g ai/ha, 0 to 100 scale, 0 is no effect, 100 is complete control
[13] = Postemergence, 500 g ai/ha, scale 0 to 100
[14] = Postemergence, 250 g ai/ha, scale 0 to 100, 0 no effect, 100 complete control
[15] = postemergence, 125 g ai/ha, scale 0 to 100
[16] = postemergence, 62 g ai/ha, scale 0 to 100
[17] = Postemergence, 500 g ai/ha, 0 to 100 scale, 0 no effect, 100 complete control
[18] = Postemergence, 2000 g ai/ha, 0 to 100 scale, 0 no effect, 100 complete control
[19] = Preemergence, 500 g ai/ha, visual rating, 0 to 100 scale (0 no effect, 100 complete control)
[20] = Preemergence, 2000 g ai/ha, 0 to 100 scale, 0 no effect, 100 complete control
[21] = 125 g ai/ha, 0 is no effect, 100 is complete control, preemergence
[22] = 125 g ai/ha, visual rating, scale 0 (no effect) to 100 (complete control), postemergence
[23] = 500 g ai/ha, visual rating, 0 = no effect, 100 = complete control, preemergence
[24] = postemergence, 500 g ai/ha, scale 0 to 100, 0 is no effect, 100 is complete control
[25] = 62 g ai/ha, preemergence, scale 0 to 100
[26] = 250 g ai/ha, scale 0-100, preemergence
[27] = 500 g ai/ha, scale 0 to 100 (0 no effect, 100 complete control), visual, 12 to 14 days, preemergence
[28] = 125 g ai/ha, 0 = no effect, 100 = complete control, preemergence
[29] = 125 g ai/ha, scale 0 (no effect) to 100 (complete control), visual, 12 to 14 days, preemergence

## C=CCOC(=O)c1cccc(NC(=O)c2cc(C(C)(C)C)nn2CC)c1 [Compound 85]
[1]; [10]
  Plant response rating, Lambsquarters: 60
[1]; [11]
  Lambsquarters plant response rating: 50
[1]; [12]
  Plant response rating, Lambsquarters: 0
[2]; [13]
  Lambsquarters plant response rating: 100
[2]; [14]
  Plant response rating, Lambsquarters: 50
[2]; [15]
  Plant response rating, Lambsquarters: 30
[2]; [16]
  Plant response rating, Lambsquarters: 10
[3]; [17]
  Crabgrass, Large plant response rating: 20
[3]; [18]
  Plant response rating, Crabgrass, Large: 30
[3]; [19]
  Crabgrass, Large plant response rating: 0
[3]; [20]
  Crabgrass, Large plant response rating: 5
[4]; [13]
  Cupgrass, Woolly plant response rating: 85
[4]; [14]
  Plant response rating, Cupgrass, Woolly: 80
[4]; [15]
  Plant response rating, Cupgrass, Woolly: 50
[4]; [16]
  Plant response rating, Cupgrass, Woolly: 40
[5]; [13]
  Pigweed plant response rating: 100
[5]; [14]
  Plant response rating, Pigweed: 100
[5]; [15]
  Plant response rating, Pigweed: 100
[5]; [16]
  Plant response rating, Pigweed: 100
[6]; [17]
  Foxtail, Giant plant response rating: 20
[6]; [18]
  Plant response rating, Foxtail, Giant: 30
[6]; [19]
  Foxtail, Giant plant response rating: 0
[6]; [20]
  Foxtail, Giant plant response rating: 0
[7]; [13]
  Surinam Grass plant response rating: 80
[7]; [14]
  Plant response rating, Surinam Grass: 80
[7]; [15]
  Plant response rating, Surinam Grass: 30
[7]; [16]
  Plant response rating, Surinam Grass: 25
[8]; [13]
  Johnsongrass plant response rating: 80
[8]; [14]
  Plant response rating, Johnsongrass: 20
[8]; [15]
  Plant response rating, Johnsongrass: 10
[8]; [16]
  Plant response rating, Johnsongrass: 10
[9]; [10]
  Plant response rating, Cocklebur: 100
[9]; Preemergence, 500 g ai/ha, scale 0 to 100
  Cocklebur plant response rating: 0
[9]; [11]
  Cocklebur plant response rating: 90
[9]; [12]
  Plant response rating, Cocklebur: 0

## CCC1=NN(C(C)(C)C)CC1C(=O)Nc1cc(C(=O)N(C)CC)ccc1F (racemic) [Compound 342]
[1]; [21]
  Plant response rating (0 to 100 scale), Lambsquarters: 80
[1]; [22]
  Lambsquarters plant response rating: 60
[1]; [23]
  Plant response rating, Lambsquarters: 100
[1]; [24]
  Lambsquarters plant response rating: 100
[2]; [25]
  Plant response rating, Lambsquarters: 70
[2]; 125 g ai/ha, preemergence
  Plant response rating (0 = no effect, 100 = complete control), Lambsquarters: 90
[2]; [26]
  Plant response rating, Lambsquarters: 100
[2]; [27]
  Plant response rating, Lambsquarters: 100
[4]; [25]
  Plant response rating, Cupgrass, Woolly: 10
[4]; 125 g ai/ha, preemergence
  Plant response rating (0 = no effect, 100 = complete control), Cupgrass, Woolly: 40
[4]; [26]
  Plant response rating, Cupgrass, Woolly: 50
[4]; [27]
  Plant response rating, Cupgrass, Woolly: 70
[5]; [25]
  Plant response rating, Pigweed: 80
[5]; 125 g ai/ha, preemergence
  Plant response rating (0 = no effect, 100 = complete control), Pigweed: 90
[5]; [26]
  Plant response rating, Pigweed: 100
[5]; [27]
  Plant response rating, Pigweed: 100
[7]; [25]
  Plant response rating, Surinam Grass: 40
[7]; 125 g ai/ha, preemergence
  Plant response rating (0 = no effect, 100 = complete control), Surinam Grass: 90
[7]; [26]
  Plant response rating, Surinam Grass: 100
[7]; [27]
  Plant response rating, Surinam Grass: 100
[8]; [25]
  Plant response rating, Johnsongrass: 55
[8]; 125 g ai/ha, preemergence
  Plant response rating (0 = no effect, 100 = complete control), Johnsongrass: 100
[8]; [26]
  Plant response rating, Johnsongrass: 100
[8]; [27]
  Plant response rating, Johnsongrass: 100
[9]; [21]
  Plant response rating (0 to 100 scale), Cocklebur: 40
[9]; [22]
  Cocklebur plant response rating: 10
[9]; [23]
  Plant response rating, Cocklebur: 90
[9]; [24]
  Cocklebur plant response rating: 20

## CCC1=NN(C(C)(C)C)CC1C(=O)Nc1cc(C(=O)N2CCCC2)ccc1F (racemic) [Compound 341]
[1]; [21]
  Plant response rating (0 to 100 scale), Lambsquarters: 100
[1]; [22]
  Lambsquarters plant response rating: 30
[1]; [23]
  Plant response rating, Lambsquarters: 100
[1]; [24]
  Lambsquarters plant response rating: 100
[2]; [25]
  Plant response rating, Lambsquarters: 100
[2]; 125 g ai/ha, preemergence
  Plant response rating (0 = no effect, 100 = complete control), Lambsquarters: 100
[2]; [26]
  Plant response rating, Lambsquarters: 100
[2]; [27]
  Plant response rating, Lambsquarters: 100
[4]; [25]
  Plant response rating, Cupgrass, Woolly: 80
[4]; 125 g ai/ha, preemergence
  Plant response rating (0 = no effect, 100 = complete control), Cupgrass, Woolly: 80
[4]; [26]
  Plant response rating, Cupgrass, Woolly: 100
[4]; [27]
  Plant response rating, Cupgrass, Woolly: 100
[5]; [25]
  Plant response rating, Pigweed: 95
[5]; 125 g ai/ha, preemergence
  Plant response rating (0 = no effect, 100 = complete control), Pigweed: 95
[5]; [26]
  Plant response rating, Pigweed: 100
[5]; [27]
  Plant response rating, Pigweed: 100
[7]; [25]
  Plant response rating, Surinam Grass: 60
[7]; 125 g ai/ha, preemergence
  Plant response rating (0 = no effect, 100 = complete control), Surinam Grass: 95
[7]; [26]
  Plant response rating, Surinam Grass: 100
[7]; [27]
  Plant response rating, Surinam Grass: 100
[8]; [25]
  Plant response rating, Johnsongrass: 15
[8]; 125 g ai/ha, preemergence
  Plant response rating (0 = no effect, 100 = complete control), Johnsongrass: 85
[8]; [26]
  Plant response rating, Johnsongrass: 100
[8]; [27]
  Plant response rating, Johnsongrass: 100
[9]; [21]
  Plant response rating (0 to 100 scale), Cocklebur: 40
[9]; [22]
  Cocklebur plant response rating: 10
[9]; [23]
  Plant response rating, Cocklebur: 100
[9]; [24]
  Cocklebur plant response rating: 20

## CCc1nn(C(C)(C)CC)nc1C(=O)Nc1cccc(C(=O)N(C)C)c1 [Compound 372]
[1]; [21]
  Plant response rating (0 to 100 scale), Lambsquarters: 100
[1]; [22]
  Lambsquarters plant response rating: 40
[1]; Postemergence, 500 g ai/ha, scale 0 (no effect) to 100 (complete control)
  Lambsquarters plant response rating: 90
[2]; [25]
  Plant response rating, Lambsquarters: 100
[2]; 125 g ai/ha, preemergence
  Plant response rating (0 = no effect, 100 = complete control), Lambsquarters: 100
[2]; [26]
  Plant response rating, Lambsquarters: 100
[2]; [27]
  Plant response rating, Lambsquarters: 100
[4]; [25]
  Plant response rating, Cupgrass, Woolly: 50
[4]; 125 g ai/ha, preemergence
  Plant response rating (0 = no effect, 100 = complete control), Cupgrass, Woolly: 60
[4]; [26]
  Plant response rating, Cupgrass, Woolly: 70
[4]; [27]
  Plant response rating, Cupgrass, Woolly: 100
[5]; [25]
  Plant response rating, Pigweed: 85
[5]; 125 g ai/ha, preemergence
  Plant response rating (0 = no effect, 100 = complete control), Pigweed: 95
[5]; [26]
  Plant response rating, Pigweed: 100
[5]; [27]
  Plant response rating, Pigweed: 100
[7]; [25]
  Plant response rating, Surinam Grass: 50
[7]; 125 g ai/ha, preemergence
  Plant response rating (0 = no effect, 100 = complete control), Surinam Grass: 85
[7]; [26]
  Plant response rating, Surinam Grass: 85
[7]; [27]
  Plant response rating, Surinam Grass: 100
[8]; [25]
  Plant response rating, Johnsongrass: 80
[8]; 125 g ai/ha, preemergence
  Plant response rating (0 = no effect, 100 = complete control), Johnsongrass: 80
[8]; [26]
  Plant response rating, Johnsongrass: 90
[8]; [27]
  Plant response rating, Johnsongrass: 90
[9]; [21]
  Plant response rating (0 to 100 scale), Cocklebur: 10
[9]; [22]
  Cocklebur plant response rating: 20
[9]; [24]
  Cocklebur plant response rating: 30

## CCN1N=C(C(C)(C)C)CC1C(=O)Nc1cc(C(=O)N2CCCC2)ccc1F (racemic) [Compound 309]
[1]; [28]
  Lambsquarters plant response rating (0 to 100 scale): 90
[1]; [22]
  Lambsquarters plant response rating: 40
[1]; [23]
  Plant response rating, Lambsquarters: 90
[1]; [24]
  Lambsquarters plant response rating: 80
[2]; [25]
  Plant response rating, Lambsquarters: 100
[2]; [29]
  Plant response rating, Lambsquarters: 100
[2]; [26]
  Plant response rating, Lambsquarters: 100
[2]; [27]
  Plant response rating, Lambsquarters: 100
[4]; [25]
  Plant response rating, Cupgrass, Woolly: 40
[4]; [29]
  Plant response rating, Cupgrass, Woolly: 70
[4]; [26]
  Plant response rating, Cupgrass, Woolly: 90
[4]; [27]
  Plant response rating, Cupgrass, Woolly: 100
[5]; [25]
  Plant response rating, Pigweed: 80
[5]; [29]
  Plant response rating, Pigweed: 100
[5]; [26]
  Plant response rating, Pigweed: 100
[5]; [27]
  Plant response rating, Pigweed: 100
[7]; [25]
  Plant response rating, Surinam Grass: 50
[7]; [26]
  Plant response rating, Surinam Grass: 90
[7]; [27]
  Plant response rating, Surinam Grass: 100
[8]; [25]
  Plant response rating, Johnsongrass: 75
[8]; [29]
  Plant response rating, Johnsongrass: 80
[8]; [26]
  Plant response rating, Johnsongrass: 95
[8]; [27]
  Plant response rating, Johnsongrass: 100
[9]; [28]
  Cocklebur plant response rating (0 to 100 scale): 30
[9]; [22]
  Cocklebur plant response rating: 40
[9]; [23]
  Plant response rating, Cocklebur: 80
[9]; [24]
  Cocklebur plant response rating: 70
